Experiments:
[1] = ID administration of 200 uL dye with 34G, 1 mm needle/catheter, transport to inguinal lymph node; format: in vivo, Yorkshire swine; details: swine, manual ID above the right hoof, 200 uls
Protocol: MATERIALS AND METHODS. The following experiments were conducted under an approved IACUC protocol. Yorkshire Swine (Charles River Laboratories, Raleigh, N.C.), approximately 20-25 kg, were anesthetized (Rompun 4 mg/kg, Xylazine 2 mg/kg, and Ketamine 2 mg/kg and maintained on 2% isoflurane) and injected intradermally with 1% Evans Blue (EB) dye solution at various volumes and needle penetration depths using a standard syringe and a 34 gauge needle. Injection volume and rate was controlled manually or with a Harvard Apparatus PhD 2000 programmable pump.
The skin at the injection site, including the injected material and surrounding tissue, was immediately excised after the injection. The tissue was flash frozen on dry ice/2-methylbutane and then stored at −80° C. until sectioning. The frozen tissue was cut longitudinally through the needle insertion point and immediately examined microscopically and photographed. Microscopic examinations were conducted using a Nikon SMZ-U dissecting scope with a Nikon FX-35PX 35 mm camera mount. Alternatively, after injection, the swine was euthanized and the tissue resected and photographed.
One anesthetized Yorkshire swine was manually injected intradermally above the right hoof with 200 uls of EB through a 34G, 1 mm needle/catheter.

[2] = Dye staining and tracing in vivo: comparison of SC and ID delivery; parameters: species or system Yorkshire swine; details: swine; for location of dye on dissection: 10 minutes post injection
Protocol: MATERIALS AND METHODS. In vivo cell staining and all the following experiments were conducted under an approved IACUC protocol. […] Visual observation made during ID injection noted immediate transport of the dye from the site of injection moving toward the regional draining lymph node, the inguinal node. This transport was visible through the skin and was extremely rapid, traversing tissues at velocities of up to 10 cm per second. […] The swine was euthanized and dissected 10 minutes post injection and the location of the dye observed.

[3] = Dye staining and tracing in vivo after intradermal injection; parameters: species or system Balb/c mice; details: mouse, ID, 34 gauge needle, 1% solution, one hour post injection
Protocol: MATERIALS AND METHODS. In Vivo cell staining and all the following experiments were conducted under an approved IACUC protocol. Balb/c mice (Charles River Laboratories, Raleigh, N.C.), 6-8 weeks old, were anesthetized (IsoFlurane, Abbott Laboratories, Chicago, Ill.) and injected intradermally with 1% Evans Blue dye solution using a standard syringe with 34 gauge needle. The mice were dissected one hour post injection and the location of the dye observed. The mouse, as the human, has several main groups of easily identified draining lymph nodes.

[4] = Yorkshire, swine, in vivo
Protocol: Yorkshire swine (Charles River Laboratories, Raleigh, N.C.), 20-25 kg, were anesthetized (telazol/xylazine/ketamine mix (35, 17.5, 17.5 mg/kg respectively, followed by continued isoflurane inhalation) and injected intradermally (90° angle) using a 34G, 1 mm needle/catheter and a standard syringe. IV injections were performed using a 27G, half-inch needle and delivered through a venous catheter. All recovered swine were intubated and hydrated throughout the procedure.
Dye Injections: Yorkshire swine were injected ID as described above, with 200 uls of 250 ug/ml indocyanine green (ICG) in sterile water (Fluka Chemical Corp., Milwaukee, Wis.). Injections sites included the right hind leg, and at the first and second teat of the left mammary chain. Additional injections of 200 μls and 75 μls were performed at 80 ug/ml indocyanine green in order to determine lymphatic flow rates. […]
Image Acquisition: Near infrared images were obtained using a tungsten lamp (Dolan-Jenner, Lawrence, Mass.) fitted with a 750 nm excitation filter (Omega Optical, Brattleboro, Vt.), a CCD camera (Kowa Co., Supercircuits CCTV camera model b/w Hi-Res ExVision) fitted with a 790 nm long pass emission filter (Omega Optical) and a Canon ZR-20 mini-DV camcorder. […] Speed of infusion through the lymphatic vessels determined from film footage.

Row | SMILES | time for dye to travel from site of injection to draining inguinal lymph node [1] | rate of travel of dye to draining inguinal lymph node ([1]; 34G 1 mm needle/catheter) [cm/s] | location of dye on dissection ([2]; ID injected) | velocity of dye transport from injection site toward inguinal node ([2]; ID, 34-gauge needle 1 mm, 1% solution, visual observation through skin) | location of dye on dissection ([2]; subcutaneous injected) | transport of dye, visual observation ([2]; subcutaneous, 25 gauge needle, approximate depth 7 mm) | staining of superficial inguinal lymph nodes with the dye [3] | dye travel speed calculated for one injection [4] [cm/s]
1 | Cc1cc(-c2ccc(/N=N/c3ccc4c(S(=O)(=O)O)cc(S(=O)(=O)O)c(N)c4c3O)c(C)c2)ccc1/N=N/c1ccc2c(S(=O)(=O)O)cc(S(=O)(=O)O)c(N)c2c1O [Evans Blue] | Within seconds | ~20 | moved rapidly through the lymphatic vasculature to the inguinal node | up to 10 cm per second | remained at the site of injection and was not transported to the inguinal node | no apparent transport of the dye | highly stained | –
2 | CC1(C)C(/C=C/C=C/C=C/C=C2\N(CCCCS(=O)(=O)O)c3ccc4ccccc4c3C2(C)C)=[N+](CCCCS(=O)(=O)[O-])c2ccc3ccccc3c21 [ICG, indocyanine green] | – | – | – | – | – | – | – | 7

— patent US20050163711A1, “Intra-dermal delivery of biologically active agents” (Becton, Dickinson and Company, Inc., priority 2003, published 2005)
